In BindingDB's records for doi:10.1002/ps.1855 (2010) one finds IC50 data, which are given here for 34 molecules.

The term IC50 denotes the concentration needed to halve the response being measured. Read a low IC50 as greater potency in that assay.

Sequence of Cytochrome b6-f complex subunit 4 (P00166 whole entry, one chain of several): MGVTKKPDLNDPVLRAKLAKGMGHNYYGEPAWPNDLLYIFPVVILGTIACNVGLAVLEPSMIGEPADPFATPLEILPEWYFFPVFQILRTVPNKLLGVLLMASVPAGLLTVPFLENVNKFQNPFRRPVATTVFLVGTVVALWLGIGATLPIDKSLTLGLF

One experiment concerns the target Cytochrome b6-f complex subunit 4 (Spinacia oleracea, UniProt P00166). Nature of the experiment: Inhibition of photosynthetic electron transport protein complex in Spinacia oleracea (spinach) leaf thylakoid membranes measured at 30 seconds intervals for 10 min.
As to `O=C1O/C(=C\c2ccccc2F)C=C1Cc1ccccc1`, the IC50 came to 10.1 µM. This lies in the double-digit micromolar range.

The molecule `O=C1O/C(=C\c2ccc([N+](=O)[O-])cc2)C=C1Cc1ccccc1` yielded a half-inhibitory concentration (IC50) of 1.7 µM.

The molecule `COc1ccc(OC)c(/C=C2/C=C(Cc3ccccc3)C(=O)O2)c1` returned an IC50 of 19.4 µM. This IC50 lies about 11-fold higher than the previous one.

In turn, `N#Cc1ccc(/C=C2/C=C(Cc3ccccc3)C(=O)O2)cc1` had a half-maximal inhibitory concentration (IC50) of more than 200 µM.

`O=C1O/C(=C\c2ccccc2)C=C1Cc1ccccc1` registered an IC50 of 19.7 µM.

`O=C1O/C(=C\c2ccc3c(c2)OCO3)C=C1Cc1ccccc1` showed an IC50 of more than 200 µM.

Molecule `N#Cc1cccc(/C=C2/C=C(Cc3ccccc3)C(=O)O2)c1` yielded an IC50 of more than 200 µM.

As to `O=C1O/C(=C\c2cccc(C(F)(F)F)c2)C=C1Cc1ccccc1`, the half-inhibitory concentration (IC50) amounted to 10 µM.

On to `COc1ccc(/C=C2/C=C(Cc3ccccc3)C(=O)O2)cc1O`, for which the IC50 was more than 200 µM.

In turn, `O=C1O/C(=C\c2ccc(C(F)(F)F)cc2)C=C1Cc1ccccc1` displayed an IC50 of 8.3 µM.

In turn, `O=C1O/C(=C\c2ccccc2O)C=C1Cc1ccccc1` had an IC50 of more than 200 µM.

As to `O=C1O/C(=C\c2ccc(O)cc2)C=C1Cc1ccccc1`, the 50% inhibitory concentration (IC50) is more than 200 µM.

Molecule `Cc1ccc(/C=C2/C=C(Cc3ccccc3)C(=O)O2)cc1` yielded an IC50 of more than 200 µM.

As for `O=C1O/C(=C\c2ccccc2C(F)(F)F)C=C1Cc1ccccc1`, half-maximal inhibition (IC50) was put at 11.8 µM.

Turning to `O=C1O/C(=C\c2ccc(-c3ccccc3)cc2)C=C1Cc1ccccc1`, the IC50 was more than 200 µM.

As to `Cc1ccccc1/C=C1/C=C(Cc2ccccc2)C(=O)O1`, the IC50 came to 23.5 µM.

With `O=C1O/C(=C\c2cccc(O)c2)C=C1Cc1ccccc1`, the IC50 was more than 200 µM.

As to `COc1ccc(/C=C2/C=C(Cc3ccccc3)C(=O)O2)cc1`, the IC50 came out at 53.7 µM.

On to `O=C1O/C(=C\c2ccc(Br)cc2)C=C1Cc1ccccc1`, for which the half-maximal inhibitory concentration (IC50) was more than 200 µM.

Take `O=C1O/C(=C\c2ccc(Cl)cc2)C=C1Cc1ccccc1`: the IC50 is more than 200 µM.

Molecular target in another experiment: not listed separately
The experiment is described as follows: Inhibition of photosynthetic electron transport protein complex in Spinacia oleracea (spinach) leaf thylakoid membranes measured at 30 seconds intervals for 10 min.
With `O=C1O/C(=C\c2ccccc2Br)C=C1Cc1ccccc1`, the IC50 amounted to 25.8 µM. That is a double-digit micromolar value.

For the molecule `O=C1O/C(=C\c2ccc(F)cc2)C=C1Cc1ccccc1`, it took 21.9 µM to reach half-maximal inhibition (IC50).

`CN(C)c1ccc(/C=C2/C=C(Cc3ccccc3)C(=O)O2)cc1` returned a half-maximal inhibitory concentration (IC50) of more than 200 µM.

Take `O=C1O/C(=C\c2ccccc2Cl)C=C1Cc1ccccc1`: the IC50 came out at 19.1 µM. This lies in the double-digit micromolar range.

`CN(C)c1cccc(/C=C2/C=C(Cc3ccccc3)C(=O)O2)c1` yielded an IC50 of 13.3 µM. This IC50 and that of the molecule before are within 1.5-fold of each other.

Take `O=C1O/C(=C\c2c(F)c(F)c(F)c(F)c2F)C=C1Cc1ccccc1`: the IC50 came to 75.2 µM. Against the preceding molecule, the IC50 is about 5.7-fold higher.

Molecule `Cc1cccc(/C=C2/C=C(Cc3ccccc3)C(=O)O2)c1` showed an IC50 of 73.8 µM.

Molecule `O=C1O/C(=C\c2cccc(F)c2)C=C1Cc1ccccc1` showed an IC50 of 20.5 µM. This IC50 lies about 3.6-fold lower than the previous one.

The molecule `CN(C)c1ccc(/C=C2/C=C(Cc3ccccc3)C(=O)O2)c(Cl)c1` yielded an IC50 of more than 200 µM.

The molecule `O=C1O/C(=C\c2cccc(Cl)c2)C=C1Cc1ccccc1` had an IC50 of 44.7 µM.

`COc1cc(OC)c(/C=C2\C=C(Cc3ccccc3)C(=O)O2)c(OC)c1` displayed an IC50 of 12.7 µM.

In turn, `O=C1O/C(=C\c2cccc([N+](=O)[O-])c2)C=C1Cc1ccccc1` registered an IC50 of 23.1 µM.

For the molecule `O=C1O/C(=C\c2cccc(Br)c2)C=C1Cc1ccccc1`, half-maximal inhibition (IC50) required 170 µM. This IC50 lies about 7.4-fold higher than the previous one.

Molecule `CCc1ccc(/C=C2/C=C(Cc3ccccc3)C(=O)O2)cc1` displayed a half-inhibitory concentration (IC50) of 9.1 µM.
